System: VM-M3/Fluc cells
Test: Whole animal tumor bioluminescence (tumor size and metastatic spread)
Type: in vivo, VM/Dk mice
Details: Example 2; day 21 post-inoculation; FIG. 8
Source text: VM-M3/Fluc cells (T. Seyfried; Boston College) were obtained from a spontaneous tumor in a VM/Dk inbred mouse and adapted to cell culture (Huysentruyt et al., Metastatic cancer cells with macrophage properties: evidence from a new murine tumor model. Intl J Can. 2008, 123(1):73-84). […] VM-M3/Fluc cells are transfected with the firefly luciferase gene which produces a bioluminescent product in the presence of the enzymatic substrate luciferin (Shelton, et al. (2010) A novel pre-clinical in vivo mouse model for malignant brain tumor growth and invasion. Journal of neuro-oncology 99: 165-176). Bioluminescence can be detected and measured with the Xenogen IVIS Lumina System (Caliper LS). […] Bioluminescent signal was recorded using a 1 second exposure time on the IVIS Lumina cooled CCD camera. Progression of the metastatic cancer was measured by tracking the bioluminescent signal of the whole animal over time. Tumor bioluminescence will be measured once weekly for the duration of the study.
Tumor progression was measured using bioluminescence on the Xenogen IVIS Lumina cooled CCD camera (Caliper LS, Hopkinton, Mass.). […] Whole animal bioluminescent signal was measured in photons/sec once a week as an indicator of metastatic tumor size and spread. Tumor progression was measured 21 days after tumor cell inoculation.

CC(O)CCO (centres unmarked) [BD, 1,3-butanediol]
tumor bioluminescence / tumor growth and metastasis: greatly reduced tumor growth and reduced metastasis of the tumor

CC(=O)CC(=O)OCC[C@@H](C)OC(=O)CC(C)=O [KE, R,S-1,3-butanediol-diacetoacetate ester]
tumor bioluminescence / tumor growth and metastasis: greatly reduced tumor growth and reduced metastasis of the tumor

Reference: patent US9801903B2, “Targeting cancer with metabolic therapy and hyperbaric oxygen” (priority 2012, dated 2017)
